Assay results published in patent publication US20190161499A1, “PESTICIDALLY ACTIVE 1,2,4-TRIAZOLE DERIVATIVES” (SYNGENTA PARTICIPATIONS AG, priority 2015, published 2019).
Read-outs that look alike come from different tables or passages of the source.

Legend:
Format in all cases: in vivo
[1] = test system: Diabrotica Balteata (Corn Root Worm); experiment: whole plant or invertebrate; details: 96 h, read-out: effect in at least one of the two categories (mortality or growth inhibition)
Procedure: Example B3: Diabrotica Balteata (Corn Root Worm)
Maize sprouts, placed on an agar layer in 24-well microtiter plates were treated with aqueous test solutions prepared from 10,000 ppm DMSO stock solutions by spraying. After drying, the plates were infested with L2 larvae (6 to 10 per well). The samples were assessed for mortality and growth inhibition in comparison to untreated samples 4 days after infestation.

[2] = test system: Spodoptera littoralis (Egyptian Cotton Leaf Worm); experiment: Spodoptera littoralis cotton leaf disc spray test; details: foliar, 72 h, application rate 200 ppm, L1 larvae, 3 days after infestation, read-out: control (at least one of mortality, anti-feedant effect, growth inhibition)
Procedure: Spodoptera littoralis (Egyptian Cotton Leaf Worm)
Cotton leaf discs were placed on agar in 24-well microtiter plates and sprayed with aqueous test solutions prepared from 10,000 ppm DMSO stock solutions. After drying, the leaf discs were infested with five L1 larvae. The samples were assessed for mortality, anti-feedant effect, and growth inhibition in comparison to untreated samples 3 days after infestation. Control of Spodoptera littoralis by a test sample is when at least one of mortality, anti-feedant effect, and growth inhibition is higher than the untreated sample.

[3] = test system: Plutella xylostella (Diamond Back Moth); experiment: whole plant or invertebrate; details: 120 h, application rate 200 ppm, L2 larvae, 5 days after infestation, read-out: effect in at least one of the two categories (mortality or growth inhibition)
Procedure: Example B2: Plutella xylostella (Diamond Back Moth)
24-well microtiter plates with artificial diet were treated with aqueous test solutions prepared from 10,000 ppm DMSO stock solutions by pipetting. After drying, the plates were infested with L2 larvae (10 to 15 per well). The samples were assessed for mortality and growth inhibition in comparison to untreated samples 5 days after infestation.

[4] = application rate 200 ppm, L2 larvae, 4 days after infestation

| Compound | percent effect (mortality or growth inhibition) at 200 ppm [1, 4] | percent control (mortality, anti-feedant effect or growth inhibition) at 200 ppm [2] | percent effect (mortality or growth inhibition) at 200 ppm [3] | percent effect (mortality or growth inhibition) at 200 ppm [1] |
| --- | --- | --- | --- | --- |
| CCOC(=O)C1CCCCN1Cc1nc(-c2ccc(Cl)cc2)nn1-c1ccccc1F (stereo not drawn) [Example 5.22] | ≥ 80% | – | – | – |
| Clc1ccc(-c2nc(CN3CCC(c4ncccn4)CC3)n(-c3c(Cl)cc(Cl)cc3Cl)n2)cc1 [Example 1.77] | ≥ 80% | ≥ 80% | ≥ 80% | – |
| Cc1ccc(C)c(-n2nc(-c3ccc(Cl)cc3)nc2CN2CCC(c3ncccn3)CC2)c1 [Example 1.74] | ≥ 80% | – | – | – |
| Clc1ccc(-c2nc(CN3CCC(c4ncccn4)CC3)n(-c3cc(Cl)ccc3Cl)n2)cc1 [Example 1.86] | ≥ 80% | – | – | – |
| Fc1ccccc1-n1nc(Cc2ccc(Cl)cc2)nc1CN1CCC(c2ncccn2)CC1 [Example 1.91] | ≥ 80% | ≥ 80% | – | – |
| Cc1cc(Cl)ccc1-n1nc(-c2ccc(Cl)cc2)nc1CN1CCC(c2ncccn2)CC1 [Example 1.85] | ≥ 80% | ≥ 80% | ≥ 80% | – |
| Fc1ccccc1-n1nc(-c2ccccn2)nc1CN1CCC(c2ncccn2)CC1 [Example 1.102] | ≥ 80% | – | – | – |
| Clc1ccc(-c2nc(CN3CCC(c4ncccn4)CC3)n(-c3cccc(Br)c3)n2)cc1 [Example 1.57] | ≥ 80% | – | – | – |
| CC1CCN(Cc2nc(-c3ccc(Cl)cc3)nn2-c2ccccc2F)CC1 [Example 1.46] | ≥ 80% | ≥ 80% | ≥ 80% | – |
| Cc1ccc(-n2nc(-c3ccc(Cl)cc3)nc2CN2CCC(c3ncccn3)CC2)cc1 [Example 1.52] | ≥ 80% | ≥ 80% | – | – |
| Fc1ccccc1-n1nc(-c2ccc(Cl)cc2)nc1CN1CCC(c2ncno2)CC1 [Example 1.121] | ≥ 80% | – | – | – |
| CCC1CCCN(Cc2nc(-c3ccc(Cl)cc3)nn2-c2ccccc2F)C1 (stereo not drawn) [Example 5.21] | ≥ 80% | – | – | – |
| Cc1nnc(C2CCN(Cc3nc(-c4ccc(Cl)cc4)nn3-c3ccccc3F)CC2)o1 [Example 1.118] | ≥ 80% | – | – | – |
| CCOC(=O)C1CCCN(Cc2nc(-c3ccc(Cl)cc3)nn2-c2ccccc2F)C1 (stereo not drawn) [Example 5.17] | ≥ 80% | – | – | – |
| Fc1ccccc1-n1nc(-c2ccc(Cl)cc2)nc1CN1CCC(C(F)(F)F)CC1 [Example 1.5] | ≥ 80% | – | – | – |
| COc1ccc(-n2nc(-c3ccc(Cl)cc3)nc2CN2CCC(c3ncccn3)CC2)cc1 [Example 1.79] | ≥ 80% | ≥ 80% | – | – |
| CC1CCCN1Cc1nc(-c2ccc(Cl)cc2)nn1-c1ccccc1F (stereo not drawn) [Example 5.30] | ≥ 80% | – | – | – |
| Cc1ccc(-n2nc(-c3ccc(Cl)cc3)nc2CN2CCC(c3ncccn3)CC2)cc1C [Example 1.73] | ≥ 80% | – | – | – |
| Fc1ccccc1-n1nc(-c2ccc(Cl)cc2)nc1CN1CCC(c2cc(Cl)cc(Cl)c2)(C(F)(F)F)C1 (stereo not drawn) [Example 5.2] | – | – | ≥ 80% | – |
| CC(C)c1nc(CN2CCC(c3ncccn3)CC2)n(-c2ccccc2F)n1 [Example 1.100] | ≥ 80% | – | – | – |
| Clc1ccc(-c2nc(CN3CCC(c4ncccn4)CC3)n(C3CCC3)n2)cc1 [Example 1.58] | ≥ 80% | – | – | – |
| CCc1nc(CN2CCC(c3ncccn3)CC2)n(-c2ccccc2F)n1 [Example 1.99] | ≥ 80% | – | – | – |
| Fc1ccccc1-n1nc(-c2ccc(Cl)cc2)nc1CN1CCC(c2cscn2)CC1 [Example 1.119] | ≥ 80% | ≥ 80% | – | – |
| Fc1ccccc1-n1nc(C2CC2)nc1CN1CCC(c2ncccn2)CC1 [Example 1.93] | ≥ 80% | – | – | – |
| Fc1ccccc1-n1nc(-c2ccc(Cl)cc2)nc1CN1CCC(c2ncccn2)C1 (stereo not drawn) [Example 5.7] | ≥ 80% | – | ≥ 80% | – |
| Clc1ccc(-c2nc(CN3CCC(c4ncccn4)CC3)n(-c3cccc(Cl)c3)n2)cc1 [Example 1.69] | ≥ 80% | – | – | – |

| Compound | percent effect (mortality or growth inhibition) at 200 ppm [1, 4] | percent control (mortality, anti-feedant effect or growth inhibition) at 200 ppm [2] | percent effect (mortality or growth inhibition) at 200 ppm [3] | percent effect (mortality or growth inhibition) at 200 ppm [1] |
| --- | --- | --- | --- | --- |
| Clc1ccc(-c2nc(CN3CCC(c4ncccn4)CC3)n(-c3ccc(Cl)c(Cl)c3)n2)cc1 [Example 1.50] | ≥ 80% | – | – | – |
| Fc1ccccc1-n1nc(-c2cccs2)nc1CN1CCC(c2ncccn2)CC1 [Example 1.96] | ≥ 80% | – | – | – |
| Cc1cccc(-c2nc(CN3CCC(c4ncccn4)CC3)n(-c3ccccc3F)n2)c1 [Example 1.37] | ≥ 80% | ≥ 80% | – | – |
| CCC1CCCCN1Cc1nc(-c2ccc(Cl)cc2)nn1-c1ccccc1F (stereo not drawn) [Example 5.16] | ≥ 80% | – | – | – |
| Clc1ccc(-c2nc(CN3CCC(c4ncccn4)CC3)n(-c3ccc(Cl)cc3Cl)n2)cc1 [Example 1.65] | ≥ 80% | ≥ 80% | – | – |
| Cc1ccc(-c2nc(CN3CCC(c4ncccn4)CC3)n(-c3ccccc3F)n2)cc1F [Example 1.92] | ≥ 80% | ≥ 80% | – | – |
| Fc1ccccc1-n1nc(-c2ccc(Cl)cc2)nc1CN1CCC(c2nccs2)CC1 [Example 1.115] | ≥ 80% | ≥ 80% | – | – |
| CC(C)n1nc(-c2ccc(Cl)cc2)nc1CN1CCC(c2ncccn2)CC1 [Example 1.60] | ≥ 80% | – | – | – |
| Fc1ccccc1-n1nc(-c2ccc(Cl)cc2)nc1CN1CCC(c2ccncn2)CC1 [Example 1.116] | ≥ 80% | ≥ 80% | – | – |
| Fc1ccccc1-n1nc(-c2ccc(Cl)cc2)nc1CN1CCC(c2ncon2)CC1 [Example 1.113] | ≥ 80% | ≥ 80% | – | – |
| COc1cccc(-n2nc(-c3ccc(Cl)cc3)nc2CN2CCC(c3ncccn3)CC2)c1 [Example 1.75] | ≥ 80% | – | – | – |
| Cc1cccc(-n2nc(-c3ccc(Cl)cc3)nc2CN2CCC(c3ncccn3)CC2)c1 [Example 1.51] | ≥ 80% | – | – | – |
| Fc1ccccc1-n1nc(-c2ccc(Cl)cc2)nc1CN1CC=C(c2ccc(Cl)cn2)CC1 [Example 3.1] | – | – | – | ≥ 80% |
| Cn1ccnc1C1CCN(Cc2nc(-c3ccc(Cl)cc3)nn2-c2ccccc2F)CC1 [Example 1.117] | ≥ 80% | ≥ 80% | – | – |
| Cc1ccnc(C2CCN(Cc3nc(-c4ccc(Cl)cc4)nn3-c3ccccc3F)CC2)n1 [Example 1.125] | ≥ 80% | ≥ 80% | – | – |
| Fc1ccccc1-n1nc(-c2ccc(Cl)cc2)nc1CN1CCC2(CC1)CC(C(F)(F)F)=NO2 [Example 5.5] | ≥ 80% | ≥ 80% | – | – |
| NC(=O)C1CCN(Cc2nc(-c3ccc(Cl)cc3)nn2-c2ccccc2F)CC1 [Example 1.47] | ≥ 80% | ≥ 80% | – | – |
| Cc1cccc(-n2nc(-c3ccc(Cl)cc3)nc2CN2CCC(c3ncccn3)CC2)c1C [Example 1.82] | ≥ 80% | ≥ 80% | – | – |
| COc1ccc(-c2nc(CN3CCC(c4ncccn4)CC3)n(-c3ccccc3F)n2)cc1 [Example 1.101] | ≥ 80% | ≥ 80% | – | – |
| Cc1ccc(-c2nc(CN3CCC(c4ncccn4)CC3)n(-c3ccccc3F)n2)cc1 [Example 1.95] | ≥ 80% | ≥ 80% | – | – |
| Cc1ccccc1-c1nc(CN2CCC(c3ncccn3)CC2)n(-c2ccccc2F)n1 [Example 1.36] | ≥ 80% | – | – | – |
| Cc1ccc(-n2nc(-c3ccc(Cl)cc3)nc2CN2CCC(c3ncccn3)CC2)c(C)c1 [Example 1.87] | ≥ 80% | ≥ 80% | – | – |
| Fc1ccccc1-n1nc(-c2ccc(Cl)cc2)nc1CN1CCC(c2ncc[nH]2)CC1 [Example 1.112] | ≥ 80% | – | – | – |
| Fc1ccccc1-n1nc(-c2ccc(Cl)cc2)nc1CN1CCC2(CC1)CC(C1CC1)=NO2 [Example 5.4] | ≥ 80% | ≥ 80% | – | – |
| Fc1ccccc1-n1nc(-c2ccccc2)nc1CN1CCC(c2ncccn2)CC1 [Example 1.94] | ≥ 80% | ≥ 80% | – | – |
